Patent US7524869B2, “Taxanes having a C10 ester substituent” (Florida State University Research Foundation, Inc., priority 2000, dated 2009)

These compounds were tested on HCT116 (assay: In vitro cytotoxicity measured by the cell colony formation assay). Conditions: HCT116 cells, 72 h drug incubation, colonies counted after 7 days; ID50 = drug concentration producing 50% inhibition of colony formation; read-out: IN VITRO ID 50 (nm) HCT116.
Type: cell-based
Procedure: In Vitro Cytotoxicity Measured by the Cell Colony Formation Assay
Four hundred cells (HCT116) were plated in 60 mm Petri dishes containing 2.7 mL of medium (modified McCoy's 5a medium containing 10% fetal bovine serum and 100 units/mL penicillin and 100 µg/mL streptomycin). The cells were incubated in a CO2 incubator at 37° C. for 5 h for attachment to the bottom of Petri dishes. The compounds identified in Example 2 were made up fresh in medium at ten times the final concentration, and then 0.3 mL of this stock solution was added to the 2.7 mL of medium in the dish. The cells were then incubated with drugs for 72 h at 37° C. At the end of incubation the drug-containing media were decanted, the dishes were rinsed with 4 mL of Hank's Balance Salt Solution (HBSS), 5 mL of fresh medium was added, and the dishes were returned to the incubator for colony formation. The cell colonies were counted using a colony counter after incubation for 7 days.
C/C=C/C(=O)N[C@@H](c1ccco1)[C@@H](O)C(=O)O[C@H]1C[C@@]2(O)[C@@H](OC(=O)c3ccccc3)C3[C@](C)(C(=O)[C@H](OC(=O)CCC)C(=C1C)C2(C)C)[C@@H](O)C[C@H]1OC[C@@]31OC(C)=O (stereo partly shown) [Compound 3994] showed an IC50 of less than 1 nM. Compound CCC(=O)O[C@H]1C(=O)[C@@]2(C)C([C@H](OC(=O)c3ccccc3)[C@]3(O)C[C@H](OC(=O)[C@H](O)[C@@H](NC(=O)c4ccccc4)c4ccccc4)C(C)=C1C3(C)C)[C@]1(OC(C)=O)CO[C@@H]1C[C@@H]2O (stereo partly shown) [Compound 0748] has an IC50 of less than 10 nM. CC(=O)OC12COC1CC(O)C1(C)C(=O)C(OC(=O)C(C)C)C3=C(C)C(OC(=O)C(O)C(C=C(C)C)NC(=O)OC(C)(C)C)CC(O)(C(OC(=O)c4ccccc4)C21)C3(C)C (stereo not shown) [Compound 2226] showed an IC50 of less than 1 nM. CC(=O)OC12COC1CC(O)C1(C)C(=O)C(OC(=O)c3cccs3)C3=C(C)C(OC(=O)C(O)C(NC(=O)OC(C)(C)C)c4cccnc4)CC(O)(C(OC(=O)c4ccccc4)C21)C3(C)C (stereo not shown) [Compound 1948] was tested, and the IC50 was less than 10 nM. For CC(=O)O[C@@]12CO[C@@H]1C[C@H](O)[C@@]1(C)C(=O)[C@H](OC(=O)C3CC3)C3=C(C)[C@@H](OC(=O)[C@H](O)[C@H](C=C(C)C)NC(=O)OCC(C)C)C[C@@](O)([C@@H](OC(=O)c4ccccc4)C12)C3(C)C (stereo partly shown) [Compound 4720], the IC50 was less than 10 nM. With CCCC(=O)O[C@H]1C(=O)[C@@]2(C)C([C@H](OC(=O)c3ccccc3)[C@]3(O)C[C@H](OC(=O)[C@H](O)[C@@H](NC(=O)OC(C)(C)C)c4ccncc4)C(C)=C1C3(C)C)[C@]1(OC(C)=O)CO[C@@H]1C[C@@H]2O (stereo partly shown) [Compound 0978] the IC50 was less than 1 nM. CCC(=O)O[C@H]1C(=O)[C@@]2(C)C([C@H](OC(=O)c3ccccc3)[C@]3(O)C[C@H](OC(=O)[C@H](O)[C@@H](NC(=O)OC(C)(C)C)c4ccccn4)C(C)=C1C3(C)C)[C@]1(OC(C)=O)CO[C@@H]1C[C@@H]2O (stereo partly shown) [Compound 0503] showed an IC50 of less than 1 nM. With CC(=O)O[C@@]12CO[C@@H]1C[C@H](O)[C@@]1(C)C(=O)[C@H](OC(=O)C3CC3)C3=C(C)[C@@H](OC(=O)[C@H](O)[C@@H](NC(=O)OC(C)(C)C)c4ccoc4)C[C@@](O)([C@@H](OC(=O)c4ccccc4)C12)C3(C)C (stereo partly shown) [Compound 2781] the IC50 was less than 1 nM. CCC(=O)O[C@H]1C(=O)[C@@]2(C)C([C@H](OC(=O)c3ccccc3)[C@]3(O)C[C@H](OC(=O)[C@H](O)[C@@H](NC(=O)c4ccccc4)C(C)C)C(C)=C1C3(C)C)[C@]1(OC(C)=O)CO[C@@H]1C[C@@H]2O (stereo partly shown) [Compound 0719] gave an IC50 of less than 10 nM. In the case of C/C=C/C(=O)N[C@@H](c1ccco1)[C@@H](O)C(=O)O[C@H]1C[C@@]2(O)[C@@H](OC(=O)c3ccccc3)C3[C@](C)(C(=O)[C@H](OC(=O)C4CC4)C(=C1C)C2(C)C)[C@@H](O)C[C@H]1OC[C@@]31OC(C)=O (stereo partly shown) [Compound 3971], the IC50 is reported as less than 1 nM. CCC(=O)O[C@H]1C(=O)[C@@]2(C)C([C@H](OC(=O)c3ccccc3)[C@]3(O)C[C@H](OC(=O)[C@H](O)[C@@H](NC(=O)c4ccccc4)C4CCC4)C(C)=C1C3(C)C)[C@]1(OC(C)=O)CO[C@@H]1C[C@@H]2O (stereo partly shown) [Compound 0720] showed an IC50 of less than 10 nM. CCCC(=O)O[C@H]1C(=O)[C@@]2(C)C([C@H](OC(=O)c3ccccc3)[C@]3(O)C[C@H](OC(=O)[C@H](O)[C@@H](NC(=O)c4cccs4)c4cccs4)C(C)=C1C3(C)C)[C@]1(OC(C)=O)CO[C@@H]1C[C@@H]2O (stereo partly shown) [Compound 3408] gave an IC50 of less than 1 nM. In the case of C/C=C/C(=O)O[C@H]1C(=O)[C@@]2(C)C([C@H](OC(=O)c3ccccc3)[C@]3(O)C[C@H](OC(=O)[C@H](O)[C@@H](NC(=O)OC(C)(C)C)c4ccncc4)C(C)=C1C3(C)C)[C@]1(OC(C)=O)CO[C@@H]1C[C@@H]2O (stereo partly shown) [Compound 2366], the IC50 is reported as less than 1 nM. In the case of CC(=O)OC12COC1CC(O)C1(C)C(=O)C(OC(=O)c3ccco3)C3=C(C)C(OC(=O)C(O)C(NC(=O)OC(C)(C)C)c4cccs4)CC(O)(C(OC(=O)c4ccccc4)C21)C3(C)C (stereo not shown) [Compound 2164], the IC50 is reported as less than 1 nM. Compound CCC(=O)O[C@H]1C(=O)[C@@]2(C)C([C@H](OC(=O)c3ccccc3)[C@]3(O)C[C@H](OC(=O)[C@H](O)[C@@H](NC(=O)c4cccs4)c4cccs4)C(C)=C1C3(C)C)[C@]1(OC(C)=O)CO[C@@H]1C[C@@H]2O (stereo partly shown) [Compound 3425] has an IC50 of less than 1 nM. For C/C=C/C(=O)N[C@@H](c1cccs1)[C@@H](O)C(=O)O[C@H]1C[C@@]2(O)[C@@H](OC(=O)c3ccccc3)C3[C@](C)(C(=O)[C@H](OC(=O)C4CC4)C(=C1C)C2(C)C)[C@@H](O)C[C@H]1OC[C@@]31OC(C)=O (stereo partly shown) [Compound 3513], the IC50 was less than 1 nM. Work on C/C=C/C(=O)N[C@@H](c1cccs1)[C@@H](O)C(=O)O[C@H]1C[C@@]2(O)[C@@H](OC(=O)c3ccccc3)C3[C@](C)(C(=O)[C@H](OC(=O)CCC)C(=C1C)C2(C)C)[C@@H](O)C[C@H]1OC[C@@]31OC(C)=O (stereo partly shown) [Compound 3595] yielded an IC50 of less than 1 nM. CCOC(=O)N[C@@H](c1cccs1)[C@@H](O)C(=O)O[C@H]1C[C@@]2(O)[C@@H](OC(=O)c3ccccc3)C3[C@](C)(C(=O)[C@H](OC(=O)C4CC4)C(=C1C)C2(C)C)[C@@H](O)C[C@H]1OC[C@@]31OC(C)=O (stereo partly shown) [Compound 4051] showed an IC50 of less than 1 nM. For CCCC(=O)O[C@H]1C(=O)[C@@]2(C)C([C@H](OC(=O)c3ccccc3)[C@]3(O)C[C@H](OC(=O)[C@H](O)[C@@H](NC(=O)OC(C)(C)C)c4ccco4)C(C)=C1C3(C)C)[C@]1(OC(C)=O)CO[C@@H]1C[C@@H]2O (stereo partly shown) [Compound 0983], the IC50 was less than 1 nM. In the case of CCC(=O)O[C@H]1C(=O)[C@@]2(C)C([C@H](OC(=O)c3ccccc3)[C@]3(O)C[C@H](OC(=O)[C@H](O)[C@@H](NC(=O)c4ccncc4)c4cccs4)C(C)=C1C3(C)C)[C@]1(OC(C)=O)CO[C@@H]1C[C@@H]2O (stereo partly shown) [Compound 4207], the IC50 is reported as less than 10 nM. For CC(=O)O[C@@]12CO[C@@H]1C[C@H](O)[C@@]1(C)C(=O)[C@H](OC(=O)C3CC3)C3=C(C)[C@@H](OC(=O)[C@H](O)[C@@H](NC(=O)OCC(C)C)c4ccoc4)C[C@@](O)([C@@H](OC(=O)c4ccccc4)C12)C3(C)C (stereo partly shown) [Compound 4665], the IC50 was less than 10 nM. With CCC(=O)O[C@H]1C(=O)[C@@]2(C)C([C@H](OC(=O)c3ccccc3)[C@]3(O)C[C@H](OC(=O)[C@H](O)[C@@H](NC(=O)OC(C)(C)C)C4CC4)C(C)=C1C3(C)C)[C@]1(OC(C)=O)CO[C@@H]1C[C@@H]2O (stereo partly shown) [Compound 0578] the IC50 was less than 1 nM. Work on CCC(=O)O[C@H]1C(=O)[C@@]2(C)C([C@H](OC(=O)c3ccccc3)[C@]3(O)C[C@H](OC(=O)[C@H](O)[C@@H](NC(=O)c4ccco4)c4ccco4)C(C)=C1C3(C)C)[C@]1(OC(C)=O)CO[C@@H]1C[C@@H]2O (stereo partly shown) [Compound 3818] yielded an IC50 of less than 1 nM. Work on CCC(=O)O[C@H]1C(=O)[C@@]2(C)C([C@H](OC(=O)c3ccccc3)[C@]3(O)C[C@H](OC(=O)[C@H](O)[C@@H](NC(=O)OCC(C)C)c4cccs4)C(C)=C1C3(C)C)[C@]1(OC(C)=O)CO[C@@H]1C[C@@H]2O (stereo partly shown) [Compound 3163] yielded an IC50 of less than 1 nM. In the case of C/C=C/C(=O)O[C@H]1C(=O)[C@@]2(C)C([C@H](OC(=O)c3ccccc3)[C@]3(O)C[C@H](OC(=O)[C@H](O)[C@H](C=C(C)C)NC(=O)OC(C)(C)C)C(C)=C1C3(C)C)[C@]1(OC(C)=O)CO[C@@H]1C[C@@H]2O (stereo partly shown) [Compound 2332], the IC50 is reported as less than 1 nM. Compound CCC(=O)O[C@H]1C(=O)[C@@]2(C)C([C@H](OC(=O)c3ccccc3)[C@]3(O)C[C@H](OC(=O)[C@H](O)[C@@H](NC(=O)OC(C)C)c4ccco4)C(C)=C1C3(C)C)[C@]1(OC(C)=O)CO[C@@H]1C[C@@H]2O (stereo partly shown) [Compound 3522] has an IC50 of less than 1 nM. CCC(=O)O[C@H]1C(=O)[C@@]2(C)C([C@H](OC(=O)c3ccccc3)[C@]3(O)C[C@H](OC(=O)[C@H](O)[C@@H](NC(=O)OC(C)(C)C)c4ccncc4)C(C)=C1C3(C)C)[C@]1(OC(C)=O)CO[C@@H]1C[C@@H]2O (stereo partly shown) [Compound 0521] was tested, and the IC50 was less than 1 nM. CC(=O)O[C@@]12CO[C@@H]1C[C@H](O)[C@@]1(C)C(=O)[C@H](OC(=O)C3CC3)C3=C(C)[C@@H](OC(=O)[C@H](O)[C@@H](NC(=O)c4ccccc4)c4ccco4)C[C@@](O)([C@@H](OC(=O)c4ccccc4)C12)C3(C)C (stereo partly shown) [Compound 0908] gave an IC50 of less than 1 nM. For CCCC(=O)OC1C(=O)C2(C)C(O)CC3OCC3(OC(C)=O)C2C(OC(=O)c2ccccc2)C2(O)CC(OC(=O)C(O)C(NC(=O)OC(C)(C)C)c3ccccc3)C(C)=C1C2(C)C (stereo not shown) [Compound 1060], the IC50 was less than 1 nM. Compound CCC(=O)O[C@H]1C(=O)[C@@]2(C)C([C@H](OC(=O)c3ccccc3)[C@]3(O)C[C@H](OC(=O)[C@H](O)[C@@H](NC(=O)c4ccccc4)c4ccc([N+](=O)[O-])cc4)C(C)=C1C3(C)C)[C@]1(OC(C)=O)CO[C@@H]1C[C@@H]2O (stereo partly shown) [Compound 0732] has an IC50 of less than 10 nM. With CCC(=O)O[C@H]1C(=O)[C@@]2(C)C([C@H](OC(=O)c3ccccc3)[C@]3(O)C[C@H](OC(=O)[C@H](O)[C@@H](NC(=O)c4ccccc4)c4ccoc4)C(C)=C1C3(C)C)[C@]1(OC(C)=O)CO[C@@H]1C[C@@H]2O (stereo partly shown) [Compound 0670] the IC50 was less than 1 nM. C/C=C/C(=O)N[C@@H](c1ccoc1)[C@@H](O)C(=O)O[C@H]1C[C@@]2(O)[C@@H](OC(=O)c3ccccc3)C3[C@](C)(C(=O)[C@H](OC(=O)CCC)C(=C1C)C2(C)C)[C@@H](O)C[C@H]1OC[C@@]31OC(C)=O (stereo partly shown) [Compound 4919] was tested, and the IC50 was less than 1 nM. Compound CC(=O)O[C@@]12CO[C@@H]1C[C@H](O)[C@@]1(C)C(=O)[C@H](OC(=O)C=C(C)C)C3=C(C)[C@@H](OC(=O)[C@H](O)[C@@H](NC(=O)OC(C)(C)C)c4ccco4)C[C@@](O)([C@@H](OC(=O)c4ccccc4)C12)C3(C)C (stereo partly shown) [Compound 2488] has an IC50 of less than 1 nM. Work on CC(=O)OC12COC1CC(O)C1(C)C(=O)C(OC(=O)c3cccs3)C3=C(C)C(OC(=O)C(O)C(NC(=O)OC(C)(C)C)c4ccsc4)CC(O)(C(OC(=O)c4ccccc4)C21)C3(C)C (stereo not shown) [Compound 1939] yielded an IC50 of less than 1 nM.
